Measured values taken from ChEMBL document CHEMBL4004849, “Tetrazolylmethyl quinolines: Design, docking studies, synthesis, anticancer and antifungal analyses” (2017).
In brackets after ≈: the same amount, converted by molar mass. Activity calls are given as the source filed them. No cut-off for these calls is given here.

What was measured:
Assay type in all cases: functional
[1] = system: HL-60(TB); assay: Growth inhibition of human HL-60(TB) cells at 10^-5 M incubated for 48 hrs by sulforhodamine B assay relative to control
[2] = system: K562; assay: Growth inhibition of human K562 cells at 10^-5 M incubated for 48 hrs by sulforhodamine B assay relative to control
[3] = system: SR; assay: Growth inhibition of human SR cells at 10^-5 M incubated for 48 hrs by sulforhodamine B assay relative to control
[4] = system: EKVX; assay: Growth inhibition of human EKVX cells at 10^-5 M incubated for 48 hrs by sulforhodamine B assay relative to control
[5] = system: NCI-H23; assay: Growth inhibition of human NCI-H23 cells at 10^-5 M incubated for 48 hrs by sulforhodamine B assay relative to control
[6] = system: NCI-H460; assay: Growth inhibition of human NCI-H460 cells at 10^-5 M incubated for 48 hrs by sulforhodamine B assay relative to control
[7] = system: COLO 205; assay: Growth inhibition of human COLO205 cells at 10^-5 M incubated for 48 hrs by sulforhodamine B assay relative to control
[8] = system: HCC 2998; assay: Growth inhibition of human HCC2998 cells at 10^-5 M incubated for 48 hrs by sulforhodamine B assay relative to control
[9] = system: HCT-15; assay: Growth inhibition of human HCT15 cells at 10^-5 M incubated for 48 hrs by sulforhodamine B assay relative to control
[10] = system: KM12; assay: Growth inhibition of human KM12 cells at 10^-5 M incubated for 48 hrs by sulforhodamine B assay relative to control
[11] = system: SW-620; assay: Growth inhibition of human SW620 cells at 10^-5 M incubated for 48 hrs by sulforhodamine B assay relative to control
[12] = system: SF-295; assay: Growth inhibition of human SF295 cells at 10^-5 M incubated for 48 hrs by sulforhodamine B assay relative to control
[13] = system: SF-539; assay: Growth inhibition of human SF539 cells at 10^-5 M incubated for 48 hrs by sulforhodamine B assay relative to control
[14] = system: SNB-19; assay: Growth inhibition of human SNB19 cells at 10^-5 M incubated for 48 hrs by sulforhodamine B assay relative to control
[15] = system: SNB-75; assay: Growth inhibition of human SNB75 cells at 10^-5 M incubated for 48 hrs by sulforhodamine B assay relative to control
[16] = system: LOX IMVI; assay: Growth inhibition of human LOXIMVI cells at 10^-5 M incubated for 48 hrs by sulforhodamine B assay relative to control
[17] = system: Malme-3M; assay: Growth inhibition of human MALME-3M cells at 10^-5 M incubated for 48 hrs by sulforhodamine B assay relative to control
[18] = system: M14; assay: Growth inhibition of human M14 cells at 10^-5 M incubated for 48 hrs by sulforhodamine B assay relative to control
[19] = system: MDA-MB-435; assay: Growth inhibition of human MDA-MB-435 cells at 10^-5 M incubated for 48 hrs by sulforhodamine B assay relative to control
[20] = system: SK-MEL-2; assay: Growth inhibition of human SK-MEL-2 cells at 10^-5 M incubated for 48 hrs by sulforhodamine B assay relative to control
[21] = system: SK-MEL-28; assay: Growth inhibition of human SK-MEL-28 cells at 10^-5 M incubated for 48 hrs by sulforhodamine B assay relative to control
[22] = system: SK-MEL-5; assay: Growth inhibition of human SK-MEL-5 cells at 10^-5 M incubated for 48 hrs by sulforhodamine B assay relative to control
[23] = system: UACC-257; assay: Growth inhibition of human UACC257 cells at 10^-5 M incubated for 48 hrs by sulforhodamine B assay relative to control
[24] = system: UACC-62; assay: Growth inhibition of human UACC62 cells at 10^-5 M incubated for 48 hrs by sulforhodamine B assay relative to control
[25] = system: OVCAR-3; assay: Growth inhibition of human OVCAR3 cells at 10^-5 M incubated for 48 hrs by sulforhodamine B assay relative to control
[26] = system: OVCAR-4; assay: Growth inhibition of human OVCAR4 cells at 10^-5 M incubated for 48 hrs by sulforhodamine B assay relative to control
[27] = system: OVCAR-5; assay: Growth inhibition of human OVCAR5 cells at 10^-5 M incubated for 48 hrs by sulforhodamine B assay relative to control
[28] = system: OVCAR-8; assay: Growth inhibition of human OVCAR8 cells at 10^-5 M incubated for 48 hrs by sulforhodamine B assay relative to control
[29] = system: NCI/ADR-RES; assay: Growth inhibition of human NCI-ADR-RES cells at 10^-5 M incubated for 48 hrs by sulforhodamine B assay relative to control
[30] = system: SK-OV-3; assay: Growth inhibition of human SKOV3 cells at 10^-5 M incubated for 48 hrs by sulforhodamine B assay relative to control
[31] = system: 786-0; assay: Growth inhibition of human 786-0 cells at 10^-5 M incubated for 48 hrs by sulforhodamine B assay relative to control
[32] = system: ACHN; assay: Growth inhibition of human ACHN cells at 10^-5 M incubated for 48 hrs by sulforhodamine B assay relative to control
[33] = system: SN12C; assay: Growth inhibition of human SN12C cells at 10^-5 M incubated for 48 hrs by sulforhodamine B assay relative to control
[34] = system: TK-10; assay: Growth inhibition of human TK10 cells at 10^-5 M incubated for 48 hrs by sulforhodamine B assay relative to control
[35] = system: UO-31; assay: Growth inhibition of human UO31 cells at 10^-5 M incubated for 48 hrs by sulforhodamine B assay relative to control
[36] = system: MCF7; assay: Growth inhibition of human MCF7 cells at 10^-5 M incubated for 48 hrs by sulforhodamine B assay relative to control
[37] = system: MDA-MB-231; assay: Growth inhibition of human MDA-MB-231/ATCC cells at 10^-5 M incubated for 48 hrs by sulforhodamine B assay relative to control
[38] = system: Hs-578T; assay: Growth inhibition of human Hs 578T cells at 10^-5 M incubated for 48 hrs by sulforhodamine B assay relative to control
[39] = system: BT-549; assay: Growth inhibition of human BT549 cells at 10^-5 M incubated for 48 hrs by sulforhodamine B assay relative to control
[40] = system: T47D; assay: Growth inhibition of human T47D cells at 10^-5 M incubated for 48 hrs by sulforhodamine B assay relative to control
[41] = system: MDA-MB-468; assay: Growth inhibition of human MDA-MB-468 cells at 10^-5 M incubated for 48 hrs by sulforhodamine B assay relative to control
[42] = system: Candida albicans; assay: Antifungal activity against Candida albicans at 100 ug/ml by disc diffusion method; conditions: read-out: IZ
[43] = system: Candida albicans; assay: Antifungal activity against Candida albicans after 24 hrs by serial dilution method
[44] = system: Aspergillus fumigatus; assay: Antifungal activity against Aspergillus fumigatus at 100 ug/ml by disc diffusion method; conditions: read-out: IZ
[45] = system: Aspergillus fumigatus; assay: Antifungal activity against Aspergillus fumigatus after 24 hrs by serial dilution method

Structure (SMILES): Clc1nc2ccccc2cc1Cn1nnc(CSc2ccccc2)n1
- growth inhibition (GI) [1]: Active
- growth inhibition (GI) [2]: Active
- growth inhibition (GI) [3]: Active
- growth inhibition (GI) [4]: Active
- growth inhibition (GI) [5]: Active
- growth inhibition (GI) [6]: Active
- growth inhibition (GI) [7]: Active
- growth inhibition (GI) [8]: Active
- growth inhibition (GI) [9]: Active
- growth inhibition (GI) [10]: Active
- growth inhibition (GI) [11]: Active
- growth inhibition (GI) [12]: Active
- growth inhibition (GI) [13]: Active
- growth inhibition (GI) [14]: Active
- growth inhibition (GI) [15]: Active
- growth inhibition (GI) [16]: Active
- growth inhibition (GI) [17]: Active
- growth inhibition (GI) [18]: Active
- growth inhibition (GI) [19]: Active
- growth inhibition (GI) [20]: Active
- growth inhibition (GI) [21]: Active
- growth inhibition (GI) [22]: Active
- growth inhibition (GI) [23]: Active
- growth inhibition (GI) [24]: Active
- growth inhibition (GI) [25]: Active
- growth inhibition (GI) [26]: Active
- growth inhibition (GI) [27]: Active
- growth inhibition (GI) [28]: Active
- growth inhibition (GI) [29]: Active
- growth inhibition (GI) [30]: Active
- growth inhibition (GI) [31]: Active
- growth inhibition (GI) [32]: Active
- growth inhibition (GI) [33]: Active
- growth inhibition (GI) [34]: Active
- growth inhibition (GI) [35]: Active
- growth inhibition (GI) [36]: Active
- growth inhibition (GI) [37]: Active
- growth inhibition (GI) [38]: Active
- growth inhibition (GI) [39]: Active
- growth inhibition (GI) [40]: Active
- growth inhibition (GI) [41]: Active
- zone of inhibition at 100 µg/mL [42]: 10 mm
- MIC [43]: 10 µg/mL (≈ 27.2 µM)
- zone of inhibition at 100 µg/mL [44]: 15 mm
- MIC [45]: 25 µg/mL (≈ 68 µM)

Structure (SMILES): COc1ccc2nc(Cl)c(Cn3nnnc3Cc3ccccc3)cc2c1
- growth inhibition (GI) [1]: Active
- growth inhibition (GI) [2]: Active
- growth inhibition (GI) [3]: Active
- growth inhibition (GI) [4]: Active
- growth inhibition (GI) [5]: Active
- growth inhibition (GI) [6]: Active
- growth inhibition (GI) [7]: Active
- growth inhibition (GI) [8]: Active
- growth inhibition (GI) [9]: Active
- growth inhibition (GI) [10]: Active
- growth inhibition (GI) [11]: Active
- growth inhibition (GI) [12]: Active
- growth inhibition (GI) [13]: Active
- growth inhibition (GI) [14]: Active
- growth inhibition (GI) [15]: Active
- growth inhibition (GI) [16]: Active
- growth inhibition (GI) [17]: Active
- growth inhibition (GI) [18]: Active
- growth inhibition (GI) [19]: Active
- growth inhibition (GI) [20]: Active
- growth inhibition (GI) [21]: Active
- growth inhibition (GI) [22]: Active
- growth inhibition (GI) [23]: Active
- growth inhibition (GI) [24]: Active
- growth inhibition (GI) [25]: Active
- growth inhibition (GI) [26]: Active
- growth inhibition (GI) [27]: Active
- growth inhibition (GI) [28]: Active
- growth inhibition (GI) [29]: Active
- growth inhibition (GI) [30]: Active
- growth inhibition (GI) [31]: Active
- growth inhibition (GI) [32]: Active
- growth inhibition (GI) [33]: Active
- growth inhibition (GI) [34]: Active
- growth inhibition (GI) [35]: Active
- growth inhibition (GI) [36]: Active
- growth inhibition (GI) [37]: Active
- growth inhibition (GI) [38]: Active
- growth inhibition (GI) [39]: Active
- growth inhibition (GI) [40]: Active
- growth inhibition (GI) [41]: Active
- zone of inhibition at 100 µg/mL [42]: 15 mm
- MIC [43]: 25 µg/mL (≈ 68.3 µM)
- zone of inhibition at 100 µg/mL [44]: 20 mm
- MIC [45]: 25 µg/mL (≈ 68.3 µM)
